Molecular target: human 11b-hsd-1 (Homo sapiens, UniProt P28845)
Assay: Inhibition constant Ki of human 11b-hsd-1 (3H-cortisone to 3H-cortisol conversion, HPLC)
Assay type: biochemical
Settings: for Ki: apparent Ki, human 11b-hsd-1, read-out: Ki app; for inhibition at 0.1 µM: compound at 0.1 μM

human 11b-hsd-1, sequence (P28845 whole entry): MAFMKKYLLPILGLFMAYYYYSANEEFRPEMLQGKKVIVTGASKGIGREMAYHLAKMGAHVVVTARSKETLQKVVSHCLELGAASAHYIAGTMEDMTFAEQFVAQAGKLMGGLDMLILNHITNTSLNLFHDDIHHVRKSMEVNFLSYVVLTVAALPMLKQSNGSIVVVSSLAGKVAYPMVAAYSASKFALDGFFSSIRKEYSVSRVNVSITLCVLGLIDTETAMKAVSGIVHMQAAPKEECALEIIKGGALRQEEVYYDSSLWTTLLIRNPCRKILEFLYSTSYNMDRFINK

| SMILES | Ki | inhibition at 0.1 µM |
| --- | --- | --- |
| O=C(NC1C2CC3CC(C2)CC1C3)[C@H]1C[C@@H](O)CN1Cc1ccc(F)cc1 (some centres unmarked) [Example 27] | 1.1 nM | 100% |
| O=C(NC1C2CC3CC(C2)CC1C3)[C@H]1C[C@@H](O)CN1CC1CCCC1 (stereo partly drawn) [Example 28, (4R)-N-2-adamantyl-1-cyclopentylmethyl-4-hydroxy-D-prolinamide] | 1 nM | 100% |
| CC(C)CN1C[C@H](O)C[C@@H]1C(=O)NC1CCCCC1 [Example 29] | 39.2 nM | 69% |
| O=C(NC1CCCCC1)[C@H]1C[C@@H](O)CN1CC1CCCC1 [Example 30] |  | 63% |
| O=C(NC1CCCCC1)[C@H]1C[C@@H](O)CN1Cc1ccc(F)cc1 [Example 31] |  | 53% |
| CC(C)CN1CCOC[C@@H]1C(=O)NCc1c(F)cccc1F [Example 32] |  | 67% |
| CC(C)CN1CCOC[C@@H]1C(=O)NCc1cccc(F)c1 [Example 33] |  | 65% |
| CC(C)CN1CCOC[C@@H]1C(=O)NCc1ccc(F)cc1 [Example 34] | 18 nM | 79% |
| CCOc1ccccc1CNC(=O)[C@H]1COCCN1CC(C)C [Example 35] | 22.6 nM | 82% |
| CN(Cc1ccc(F)cc1)C(=O)[C@H]1COCCN1Cc1ccc(C#N)cc1 [Example 36] | 21.4 nM | 90% |
| CC(C)CN1CCOC[C@@H]1C(=O)N(C)Cc1ccc(F)cc1 [Example 37] | 39.3 nM | 100% |
| CCCN1CCC[C@@H]1C(=O)NC1Cc2ccccc2C1 [Example 38] | 7.9 nM | 90.4% |
| O=C(NC1CCc2ccccc21)[C@H]1CCCN1CC1CCCC1 (some centres unmarked) [Example 39] | < 1 nM | 100% |
| Cc1ncccc1CNC(=O)[C@H]1CCCN1CC(C)C [Example 40] | 19 nM | 100% |
| O=C(NC1C2CC3CC(C2)CC1C3)[C@H]1CCCN1Cc1ccccn1 (some centres unmarked) [Example 41] | < 1 nM | 100% |
| CN1CCC(CN2C[C@H](O)C[C@@H]2C(=O)NC2CCCCC2)CC1 [Example 42, (4R)-N-cyclohexyl-4-hydroxy-1-[(1-methylpiperidin-4-yl)methyl]-D prolinamide] |  | 0% |
| CN(C)CCN1C[C@H](O)C[C@@H]1C(=O)NC1C2CC3CC(C2)CC1C3 (some centres unmarked) [Example 43] |  | 31.9% |
| CN(C)CCN1CCOC[C@@H]1C(=O)NC1C2CC3CC(C2)CC1C3 (stereo partly drawn) [Example 44, (3R)-N-2-adamantyl-4-[2-(dimethylamino)ethyl]morpholine-3-carboxamide] |  | 59.4% |
| NC1C[C@H](C(=O)NC2C3CC4CC(C3)CC2C4)N(CC2CCCC2)C1 (stereo partly drawn) [Example 45, N-2-adamantyl-4-amino-1-(cyclopentylmethyl)-D-prolinamide] |  | 81% |
| CN1CCC(CN2C[C@H](O)C[C@@H]2C(=O)NC2C3CC4CC(C3)CC2C4)CC1 (stereo partly drawn) [Example 47, (4R)-N-2-adamantyl-4-hydroxy-1-[(1-methylpiperidin-4-yl)methyl]-D prolinamide] |  | 38% |
| O=C(NC1C2CC3CC(C2)CC1C3)[C@H]1C[C@@H](O)CN1CC1CCOCC1 (some centres unmarked) [Example 48] |  | 83% |
| CN(C(=O)[C@H]1COCCN1CC1CCOCC1)C1CCCCC1 [Example 49] |  | 64% |
| O=C(NC1CCCCC1)[C@H]1CCCN1CC1CCCC1 [Example 50] | 1.3 nM | 100% |
| CC(C)CN1CCC[C@@H]1C(=O)N[C@@H]1CCCc2ccccc21 [Example 51] | 1 nM | 100% |
| N#Cc1ccc(CN2CCC[C@@H]2C(=O)NC2CCCCC2)cc1 [Example 52] | 4.6 nM | 100% |
| CCOc1ccccc1CNC(=O)[C@H]1CCCN1CC(C)C [Example 53] | 4.6 nM | 100% |

| SMILES | Ki | inhibition at 0.1 µM |
| --- | --- | --- |
| CCOc1ccccc1CNC(=O)[C@H]1CCCN1CC1CCCC1 [Example 54] | 13.2 nM | 94% |
| CCCN1CCC[C@@H]1C(=O)NC1CCCCC1C (some centres unmarked) [Example 55] | 3.7 nM | 100% |
| CCCN1CCC[C@@H]1C(=O)N[C@@H]1CCCc2ccccc21 [Example 56] | 8 nM | 92% |
| CC(C)CN1CCOC[C@@H]1C(=O)NCc1ccccc1F [Example 57] | 23.4 nM | 81% |
| CCN1CCC[C@@H]1C(=O)NC1CCCCC1C (some centres unmarked) [Example 58] | 28 nM | 70% |
| CC1(C(=O)NC2CCCCC2)CCCN1Cc1ccc(C#N)cc1 (centres unmarked) [Example 59] | 22 nM | 71% |
| CCCN1CCCC1(C)C(=O)NC1CCCCC1 (centres unmarked) [Example 60] | 25 nM | 79% |
| CN1CCC(CN2CCOC[C@@H]2C(=O)NC2C3CC4CC(C3)CC2C4)CC1 (some centres unmarked) [Example 61] |  | 74% |
| N#Cc1ccc(CN2CCOC[C@@H]2C(=O)NC2C3CC4CC(C3)CC2C4)cc1 (some centres unmarked) [Example 62] | 1.1 nM | 100% |
| O=C(NC1C2CC3CC(C2)CC1C3)[C@H]1COCCN1CC1CCCC1 (some centres unmarked) [Example 63] | 1 nM | 100% |
| CC(C)CN1CCOC[C@@H]1C(=O)NC1C2CC3CC(C2)CC1C3 (some centres unmarked) [Example 64] | 1.3 nM | 100% |
| CCCN1CCOC[C@@H]1C(=O)NC1C2CC3CC(C2)CC1C3 (some centres unmarked) [Example 65] | 2.6 nM | 100% |
| O=C(NC1C2CC3CC(C2)CC1C3)[C@H]1COCCN1CCO (some centres unmarked) [Example 66] | 10 nM | 89% |
| O=C(NC1C2CC3CC(C2)CC1C3)[C@H]1COCCN1Cc1ccccn1 (some centres unmarked) [Example 67] | 1 nM | 100% |
| O=C(NCC1(O)CCCCCC1)[C@H]1CCCN1CC1CCCC1 [Example 68] | 2 nM | 93.5% |
| CC(C)CN1CCC[C@@H]1C(=O)NCC1(O)CCCCC1 [Example 69] | 7 nM | 100% |
| O=C(NC1C2CC3CC(C2)CC1C3)[C@H]1COCCN1CCN1CCCC1 (some centres unmarked) [Example 70] |  | 74% |
| CC(C)N1CCC(CN2CCOC[C@@H]2C(=O)NC2C3CC4CC(C3)CC2C4)CC1 (some centres unmarked) [Example 73] |  | 83% |
| CC(C)CN1CCC(CN2CCOC[C@@H]2C(=O)NC2C3CC4CC(C3)CC2C4)CC1 (some centres unmarked) [Example 74] |  | 90% |
| CCN1CCC(CN2CCOC[C@@H]2C(=O)NC2C3CC4CC(C3)CC2C4)CC1 (some centres unmarked) [Example 75] |  | 91% |
| CC(C)N1CCC(CN2C[C@H](O)C[C@@H]2C(=O)NC2C3CC4CC(C3)CC2C4)CC1 (some centres unmarked) [Example 76] |  | 14% |
| CCN1CCC[C@@H]1C(=O)NC1CCCCC1 [Example 84] |  | 62% |
| CCCN1CCC[C@@H]1C(=O)NC1CCCCC1 [Example 85] | 9 nM | 94% |
| CC(C)CN1CCC[C@@H]1C(=O)NC1CCCCC1 [Example 86] | < 1 nM | 100% |
| CC(C)(O)CN1CCC[C@@H]1C(=O)NC1CCCCC1 [Example 87, 1-(2-Hydroxy-2-methyl-propyl)-pyrrolidine-2-carboxylic acid cyclohexylamide] |  | 54% |

— patent publication US20050261290A1, “Novel compounds of proline and morpholine derivatives” (priority 2004, published 2005)
